Legend:
[1] = molecular target: T1, MAGL (Mus musculus, UniProt O35678); assay: In vitro competitive activity-based protein profiling, MAGL, mouse; conditions: read-out: MAGL % inh. 1 μM (mouse)
T1 sequence (O35678 1-303): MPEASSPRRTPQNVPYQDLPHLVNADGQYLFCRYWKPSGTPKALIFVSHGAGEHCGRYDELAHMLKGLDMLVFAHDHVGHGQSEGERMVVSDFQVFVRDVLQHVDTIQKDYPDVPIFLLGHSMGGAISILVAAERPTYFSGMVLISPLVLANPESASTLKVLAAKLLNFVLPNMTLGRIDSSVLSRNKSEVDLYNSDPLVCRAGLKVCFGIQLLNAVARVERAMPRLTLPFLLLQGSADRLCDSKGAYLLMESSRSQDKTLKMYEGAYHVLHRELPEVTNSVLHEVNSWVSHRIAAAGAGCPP
Protocol: Biological Evaluation In Vitro Competitive Activity-Based Protein Profiling.
Proteomes (mouse brain membrane fraction for mouse assays; human prefrontal cortex membrane fractions for human assays) (50 mL, 1.0 mg/mL total protein concentration) were preincubated with varying concentrations of inhibitors at 37° C. After 30 min, FP-Rh (1.0 mL, 50 mM in DMSO) was added and the mixture was incubated for another 30 min at 37° C. Reactions were quenched with SDS loading buffer (15 μL—4λ) and run on SDS-PAGE.

[2] = molecular target: T2, MAGL (Homo sapiens, UniProt Q99685); assay: In vitro competitive activity-based protein profiling, MAGL, human; conditions: read-out: MAGL % inh. 1 μM (human)
T2 sequence (Q99685 1-303): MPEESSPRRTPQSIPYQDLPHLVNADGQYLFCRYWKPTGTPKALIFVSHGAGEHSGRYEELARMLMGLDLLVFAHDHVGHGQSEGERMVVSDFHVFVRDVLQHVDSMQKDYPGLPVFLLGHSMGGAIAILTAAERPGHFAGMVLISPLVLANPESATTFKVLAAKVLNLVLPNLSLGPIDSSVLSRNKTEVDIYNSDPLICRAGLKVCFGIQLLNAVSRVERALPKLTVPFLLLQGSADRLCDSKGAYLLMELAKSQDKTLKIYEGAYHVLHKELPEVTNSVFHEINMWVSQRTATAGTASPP

[3] = molecular target: T3, FAAH (Homo sapiens, UniProt O00519); assay: In vitro competitive activity-based protein profiling, FAAH, human; conditions: for inhibition at 1 µM: read-out: FAAH % inh. 1 μM (human)
T3 sequence (O00519 1-579): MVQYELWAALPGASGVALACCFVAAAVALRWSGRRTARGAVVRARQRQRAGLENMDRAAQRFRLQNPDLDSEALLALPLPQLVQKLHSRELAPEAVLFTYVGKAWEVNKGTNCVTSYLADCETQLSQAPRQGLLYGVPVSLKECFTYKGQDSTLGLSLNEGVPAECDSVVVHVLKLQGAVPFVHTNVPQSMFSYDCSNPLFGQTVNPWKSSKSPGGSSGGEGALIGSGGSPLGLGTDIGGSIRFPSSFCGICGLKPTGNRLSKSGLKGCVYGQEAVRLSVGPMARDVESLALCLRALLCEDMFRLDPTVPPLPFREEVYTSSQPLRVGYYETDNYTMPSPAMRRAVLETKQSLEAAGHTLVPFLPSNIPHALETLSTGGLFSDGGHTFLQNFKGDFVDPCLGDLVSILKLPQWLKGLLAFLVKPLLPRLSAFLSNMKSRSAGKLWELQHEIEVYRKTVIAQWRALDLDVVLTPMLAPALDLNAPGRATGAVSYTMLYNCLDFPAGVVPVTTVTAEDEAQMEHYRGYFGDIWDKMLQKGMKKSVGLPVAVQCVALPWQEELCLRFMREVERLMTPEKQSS

[4] = molecular target: T4, FAAH (Mus musculus, UniProt O08914); assay: Mouse brain proteomes from inhibitor treated mice (oral gavage, sacrificed 4 h after administration), FAAH; assay type: in vivo; parameters: mouse brain membrane fraction for mouse assays; from tissue; host or cells: mouse brain (membrane fraction in vitro; brain proteomes of treated C57Bl/6J mice in vivo); conditions: 5 mg/kg oral gavage, brain proteome 4 h after administration, read-out: FAAH % inh. 5 mg/kg (mouse)
T4 sequence (O08914 1-579): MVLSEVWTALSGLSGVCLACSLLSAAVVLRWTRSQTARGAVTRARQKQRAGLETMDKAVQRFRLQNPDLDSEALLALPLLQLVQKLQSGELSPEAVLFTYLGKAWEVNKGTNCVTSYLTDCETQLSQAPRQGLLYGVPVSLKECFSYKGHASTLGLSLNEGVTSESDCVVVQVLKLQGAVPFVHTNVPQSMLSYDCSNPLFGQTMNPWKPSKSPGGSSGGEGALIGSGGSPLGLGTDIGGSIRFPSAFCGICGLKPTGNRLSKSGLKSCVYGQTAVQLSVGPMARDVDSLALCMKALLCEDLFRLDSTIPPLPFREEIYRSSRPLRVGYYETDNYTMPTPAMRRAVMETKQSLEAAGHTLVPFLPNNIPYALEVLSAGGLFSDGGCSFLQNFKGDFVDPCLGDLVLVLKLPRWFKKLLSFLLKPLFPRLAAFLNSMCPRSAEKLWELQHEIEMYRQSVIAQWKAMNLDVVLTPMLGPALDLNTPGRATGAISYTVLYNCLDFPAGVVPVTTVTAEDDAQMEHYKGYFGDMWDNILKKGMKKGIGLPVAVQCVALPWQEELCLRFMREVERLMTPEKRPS

[5] = molecular target: T4, FAAH; assay: In vitro competitive activity-based protein profiling, FAAH, mouse; conditions: read-out: FAAH % inh. 1 μM (mouse)
[6] = molecular target: T1, MAGL; assay: Mouse brain proteomes from inhibitor treated mice (oral gavage, sacrificed 4 h after administration); assay type: in vivo; parameters: mouse brain membrane fraction for mouse assays; from tissue; host or cells: mouse brain (membrane fraction in vitro; brain proteomes of treated C57Bl/6J mice in vivo); conditions: 5 mg/kg oral gavage, brain proteome 4 h after administration, read-out: MAGL % inh. 5 mg/kg (mouse)

| Structure (SMILES) | inhibition at 1 µM [1] | inhibition at 1 µM [2] | inhibition at 1 µM [3] | inhibition at 5 mg/kg [4] | inhibition at 1 µM [5] | inhibition at 5 mg/kg [6] | IC50 [3] |
| --- | --- | --- | --- | --- | --- | --- | --- |
| O=C(O)c1ccn(C(=O)N2CCC(Oc3ccc(Cl)cc3N3CCCC3)CC2)n1 [Example 11, 1-(4-(4-Chloro-2-(pyrrolidin-1-yl)phenoxy)piperidine-1-carbonyl)-1H-pyrazole-3-carboxylic Acid] | > 75% | > 75% | 0 to 25% | 0 to 25% | 0 to 25% | 0 to 25% | – |
| COC1CCN(c2cc(C(F)(F)F)ccc2CN2CCN(C(=O)n3ccc(C(=O)O)n3)CC2)CC1 [Example 12, 1-(4-(2-(4-Methoxypiperidin-1-yl)-4-(trifluoromethyl)benzyl)piperazine-1-carbonyl)-1H-pyrazole-3-carboxylic Acid] | > 75% | > 75% | 0 to 25% | 0 to 25% | 0 to 25% | 0 to 25% | – |
| O=C(O)c1ccn(C(=O)N2CCN(Cc3ccc(C(F)(F)F)c(N4C5CCC4COC5)c3)CC2)n1 [Example 40, 1-(4-(3-(3-oxa-8-azabicyclo[3.2.1]octan-8-yl)-4-(trifluoromethyl)benzyl)piperazine-1-carbonyl)-1H-pyrazole-3-carboxylic acid] | > 75% | > 75% | 0 to 25% | 0 to 25% | 0 to 25% | 0 to 25% | – |
| O=C(O)c1ccn(C(=O)N2CCC3(CCN(Cc4cc(Cl)ccc4C(F)(F)F)C3)CC2)n1 [Example 43, 1-(2-(5-chloro-2-(trifluoromethyl)benzyl)-2,8-diazaspiro[4.5]decane-8-carbonyl)-1H-pyrazole-3-carboxylic acid] | > 75% | > 75% | 50 to 75% | 0 to 25% | > 75% | 0 to 25% | 1000 to 10000 nM |
| O=C(O)c1ccn(C(=O)N2CCN(Cc3ccc(C(F)(F)F)cc3N3CCN4CCC[C@@H]4C3)CC2)n1 [Example 48, (R)-1-(4-(2-(hexahydropyrrolo [1,2-a]pyrazin-2(1H)-yl)-4-(trifluoromethyl)benzyl)piperazine-1-carbonyl)-1H-pyrazole-3-carboxylic acid] | > 75% | > 75% | 0 to 25% | 0 to 25% | 0 to 25% | 0 to 25% | – |
| O=C(O)c1ccn(C(=O)N2CCN(Cc3cccc(Oc4ccc(F)cc4)c3)CC2)n1 [Example 51, 1-(4-(3-(4-fluorophenoxy)benzyl)piperazine-1-carbonyl)-1H-pyrazole-3-carboxylic acid] | > 75% | > 75% | 50 to 75% | 0 to 25% | 0 to 25% | 0 to 25% | 100 to 1000 nM |
| O=C(O)c1ccn(C(=O)N2C[C@H]3C[C@H](OCc4ccc(Oc5ccc(Cl)cc5)cc4)C[C@H]3C2)n1 [Example 55, 1-(trans-5-((4-(4-chlorophenoxy)benzyl)oxy)octa-hydrocyclopenta[c]pyrrole-2-carbonyl)-1H-pyrazole-3-carboxylic acid] | > 75% | > 75% | > 75% | 0 to 25% | > 75% | 0 to 25% | – |
| O=C(O)c1ccn(C(=O)N2CCN(Cc3cccc(Oc4cc(C(F)(F)F)ccn4)c3)CC2)n1 [Example 57, 1-(4-(3-((4-(trifluoromethyl)pyridin-2-yl)oxy)benzyl)piper-azine-1-carbonyl)-1H-pyrazole-3-carboxylic acid] | > 75% | > 75% | 50 to 75% | 0 to 25% | 50 to 75% | 0 to 25% | 100 to 1000 nM |
| O=C(O)c1ccn(C(=O)N2CCC3(CCCN3Cc3ccc(C(F)(F)F)cc3Cl)CC2)n1 [Example 76, 1-(1-(2-chloro-4-(trifluoromethyl)benzyl)-1,8-diazaspiro[4.5]decane-8-carbonyl)-1H-pyrazole-3-carboxylic acid] | > 75% | > 75% | 0 to 25% | 0 to 25% | 0 to 25% | 0 to 25% | – |
| O=C(O)c1ccn(C(=O)N2CCN(Cc3ccc(C(F)(F)F)cc3N3CCCC3)CC2)n1 [Example 83, 1-(4-(2-(pyrrolidin-1-yl)-4-(trifluoromethyl)benzyl)piperazine-1-carbonyl)-1H-pyrazole-3-carboxylic acid] | > 75% | > 75% | 0 to 25% | 0 to 25% | 0 to 25% | 0 to 25% | 1000 to 10000 nM |
| O=C(O)c1ccn(C(=O)N2CCC3(CCCN3Cc3cc(Cl)cc(C(F)(F)F)c3)CC2)n1 [Example 86, 1-(1-(3-chloro-5-(trifluoromethyl)benzyl)-1,8-diazaspiro[4.5]decane-8-carbonyl)-1H-pyrazole-3-carboxylic acid] | > 75% | > 75% | 0 to 25% | 0 to 25% | 0 to 25% | 0 to 25% | – |
| O=C(O)c1ccn(C(=O)N2CCC3(CCCN3Cc3cc(N4CCCC4)cc(C(F)(F)F)c3)CC2)n1 [Example 88, 1-(1-(3-(pyrrolidin-1-yl)-5-(trifluoromethyl)benzyl)-1,8-diazaspiro[4.5]decane-8-carbonyl)-1 1H-pyrazole-3-carboxylic acid] | > 75% | > 75% | 0 to 25% | 0 to 25% | 0 to 25% | 0 to 25% | – |
| O=C(O)c1ccn(C(=O)N2CCN(Cc3cccc(C(F)(F)F)c3N3CCCC3)CC2)n1 [Example 90, 1-(4-(2-(pyrrolidin-1-yl)-3-(trifluoromethyl)benzyl)piperazine-1-carbonyl)-1H-pyrazole-3-carboxylic acid] | > 75% | > 75% | 0 to 25% | 0 to 25% | 0 to 25% | 0 to 25% | – |

Source: patent US10266497B2 (ABIDE THERAPEUTICS, INC., priority 2017, dated 2019)
